Experimental data as given in ChEMBL document CHEMBL4840364, “Penicisteckins A-F, Isochroman-Derived Atropisomeric Dimers from Penicillium steckii HNNU-5B18” (J Nat Prod, 2021).
≈ marks a conversion by molar mass, not a printed value.

Tests used:
SH-SY5Y = assay: Cytotoxicity against human SH-SY5Y cells assessed as inhibition of cell viability measured for 48 hrs by CCK colorimetric assay; type: functional, cell-based
HGC-27 = assay: Cytotoxicity against human HGC-27 cells assessed as inhibition of cell viability measured for 48 hrs by CCK colorimetric assay; type: functional, cell-based; conditions: HGC-27, 48 h
C6 = assay: Cytotoxicity against rat C6 cells assessed as inhibition of cell viability measured for 48 hrs by CCK colorimetric assay; type: functional, cell-based; conditions: C6, 48 h
Staphylococcus aureus [1] = assay: Antibacterial activity against Staphylococcus aureus ATCC 29213 assessed as bacterial growth inhibition incubated for 20 hrs by broth micro dilution method; type: functional
Staphylococcus aureus [2] = assay: Antibacterial activity against methicillin-resistant Staphylococcus aureus assessed as bacterial growth inhibition incubated for 20 hrs by broth micro dilution method; type: functional

SMILES	IC50 (SH-SY5Y) [µM]	IC50 (HGC-27) [µM]	IC50 (C6) [µM]	MIC (Staphylococcus aureus [1]) [µg/mL]	MIC (Staphylococcus aureus [2]) [µg/mL]
COc1cc(O)c(-c2c(O)c(C)c3c(c2OC)CO[C@@H](C)C3)c2c1CO[C@@H](C)C2 (atropisomer aS)	< 10	< 10	< 10	–	–
COc1cc(O)c(C)c2c1CO[C@@H](C)C2	< 10	< 10	< 10	–	–
COC1=C(c2c(O)cc(OC)c3c2C[C@H](C)OC3)C(=O)C(C)=C(C[C@@H](C)O)C1=O (atropisomer aS)	< 10	< 10	< 10	–	–
COc1c2c(c(C)c(O)c1-c1c(O)c(C)c3c(c1OC)CO[C@@H](C)C3)C[C@H](C)OC2 (atropisomer aR)	< 10	< 10	< 10	–	–
COC1=CC(=O)C(C)=C(C[C@@H](C)O)C1=O	< 10	< 10	< 10	2 (≈ 9.51 µM)	8 (≈ 38.1 µM)
